Molecular target: POLRMT (Homo sapiens (Human), UniProt O00411)
Experiment: homogeneous TR-FRET assay of mitochondrial transcription (inhibition of POLRMT)
Format: biochemical
Settings: 7.5 nM POLRMT, 15 nM TFB2M, 30 nM TFAM, 0.5 nM DNA template, 500 μM NTPs, 37° C., 60 minutes
Experimental: The inhibitory activity of the compounds of the present invention against POLRMT were determined by assays based on Bergbrede, T., et al., “An adaptable high-throughput technology enabling the identification of specific transcription modulators,” SLAC Discov., 22, 378-386 (2017).
The ability of some compounds of the present invention to inhibit POLRMT were determined in a homogeneous TR-FRET Assay using high-throughput screening in a 384-well plate format. This method is used to monitor the activity of mitochondrial transcription through measurement of its product, a 407 bp long RNA transcript. Detection of the product is facilitated by hybridization of two DNA-oligonucleotide probes to specific and adjacent sequences within the RNA product sequence. Upon annealing of the probes, two fluorophores are coupled directly to an acceptor nucleotide probe (ATT0647, 5′), or introduced via a coupled streptavidin with a biotinylated donor nucleotide probe (Europium cryptate) that is brought into sufficient proximity to serve as a fluorescence-donor-acceptor pair. Thus, a FRET signal at 665 nm is generated upon excitation at 340 nm.
Proteins used as transcription factors (POLRMT: NP_005026.3, TFAM: NP_003192.1, TFB2M: NP_071761.1) are diluted from their stocks to working concentrations of 1 μM, 20 μM and 4 μM respectively, in a dilution buffer containing 20 mM Tris-HCl (pH 8.0), 200 mM NaCl, 10% (v/v) glycerol, 1 mM Dithiothreitol (DTT), 0.5 mM EDTA.
DNA template is a pUC18 plasmid with the mitochondrial light strand promotor sequence (1-477) cloned between HindIII and BamHI sites. The DNA template is restriction linearized proximal to the promotor 3′-end (pUC-LSP). The reaction mixture (10 uL) containing 7.5 nM POLRMT, 15 nM of TFB2M, 30 nM of TFAM, 0.5 nM of DNA template and 500 μM nucleotide triphosphate mix (NTPs) in a reaction buffer (containing 10 mM Tris-HCl (pH 7.5), 10 mM MgCl2, 40 mM NaCl, 10 mM DTT, 0.005% (w/v) Tween-20, 160 units/ml Rnase inhibitor and 0.1 mg/mL BSA) are dispensed to compounds in microplates, using a Thermo Multidrop® dispenser, and incubated at 37° C. in a VWR INCU-Line incubator for 60 minutes after mixing. No nucleotide triphosphate mix is added to negative control samples. Microplates with compounds to be tested in the assay are prepared from 10 mM compound stocks in 100% DMSO, equal amounts of DMSO without any compound are added to positive control and negative control samples.
During the incubation, a mix of the detection reagents is prepared in a buffer such that the enzymatic reaction is terminated due to chelating of Mg-ions and increased ionic strength, containing 50 mM Tris-HCl (pH 7.5), 700 mM NaCl, 20 mM EDTA, and 0.010% (w/v) Tween-20. Europium-streptavidin is pre-incubated with a 200-fold molar excess of a random sequence oligonucleotide to block unspecific binding of oligo, for two hours at ambient temperature in the dark. Afterwards, the blocked Europium-streptavidin is kept on ice until use.
At the end of the enzymatic reaction time, 5 μL detection oligo mix in the detection buffer is added, and assay plates are mixed and kept at ambient temperature for one hour, protected from light. The concentration of the Acceptor nucleotide oligo (e.g., ATTO647N-5′-[…]-3′) and Donor nucleotide oligo (e.g., bio-5′-AACACATCTCT(-bio)GCCAAACCCCA-bio-3′) in each assay well is 1 nM, and 3 nM, respectively.
After incubation with oligo mix, 5 μL of pre-blocked Europium-streptavidin reagent is dispensed to each assay well, assay plates are again mixed and kept at ambient temperature for one hour, protected from light.
The generated signal is measured with BMG Pherastar microtiter plate reader with a TRF light unit, using excitation at 340 nm, an integration time of 200 μs, and a delay time of 100 μs, before detection at 620 nm and 665 nm. The ratio of donor- and acceptor-fluorescence is used as a measure of the generated transcript product (i.e. enzymatic activity).

Sequence of POLRMT (O00411 42-1230): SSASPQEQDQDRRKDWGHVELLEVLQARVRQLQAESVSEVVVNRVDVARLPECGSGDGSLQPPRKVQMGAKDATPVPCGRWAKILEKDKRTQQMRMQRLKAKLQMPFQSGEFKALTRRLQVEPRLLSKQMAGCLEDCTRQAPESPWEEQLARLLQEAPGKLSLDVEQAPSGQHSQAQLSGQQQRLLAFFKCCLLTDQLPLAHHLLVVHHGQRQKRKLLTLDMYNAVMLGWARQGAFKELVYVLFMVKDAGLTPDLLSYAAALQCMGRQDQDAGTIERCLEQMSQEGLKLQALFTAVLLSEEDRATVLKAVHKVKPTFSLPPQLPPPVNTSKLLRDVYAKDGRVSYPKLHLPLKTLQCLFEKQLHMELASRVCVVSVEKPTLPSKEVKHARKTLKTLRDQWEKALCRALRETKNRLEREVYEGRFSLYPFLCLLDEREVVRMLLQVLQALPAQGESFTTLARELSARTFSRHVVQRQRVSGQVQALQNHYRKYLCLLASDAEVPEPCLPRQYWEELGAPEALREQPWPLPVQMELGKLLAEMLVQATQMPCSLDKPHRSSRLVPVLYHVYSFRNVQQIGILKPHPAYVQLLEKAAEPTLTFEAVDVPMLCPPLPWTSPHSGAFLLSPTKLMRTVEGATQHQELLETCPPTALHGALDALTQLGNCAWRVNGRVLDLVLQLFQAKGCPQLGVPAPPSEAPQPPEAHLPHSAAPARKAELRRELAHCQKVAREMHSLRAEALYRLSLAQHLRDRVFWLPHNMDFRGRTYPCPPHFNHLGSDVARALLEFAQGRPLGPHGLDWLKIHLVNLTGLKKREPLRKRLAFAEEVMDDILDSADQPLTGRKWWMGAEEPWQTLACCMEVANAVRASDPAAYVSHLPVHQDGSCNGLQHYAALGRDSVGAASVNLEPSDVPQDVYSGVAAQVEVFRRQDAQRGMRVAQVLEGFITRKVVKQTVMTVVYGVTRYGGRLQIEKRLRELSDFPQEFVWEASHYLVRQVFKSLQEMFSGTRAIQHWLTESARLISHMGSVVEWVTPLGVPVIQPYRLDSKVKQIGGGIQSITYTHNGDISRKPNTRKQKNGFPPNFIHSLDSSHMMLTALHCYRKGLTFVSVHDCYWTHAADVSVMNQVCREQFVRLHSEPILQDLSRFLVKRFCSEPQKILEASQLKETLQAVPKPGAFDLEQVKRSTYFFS

| Compound | IC50 |
| --- | --- |
| CNC(=O)C(CO)Oc1ccc2c(-c3ccccc3C)cc(=O)oc2c1 (single isomer, unassigned) [Example 97, 3-hydroxy-N-methyl-2-[4-(o-tolyl)-2-oxo-chromen-7-yl]oxy-propanamide] | 5000 nM |
| Cc1ccccc1-c1cc(=O)oc2cc(O[C@H]3CCN(C)C3)ccc12 [Example 63, (S)-7-((1-methylpyrrolidin-3-yl)oxy)-4-(o-tolyl)-2H-chromen-2-one] | 90000 nM |
| COCC(Oc1ccc2c(-c3ccccc3C)cc(=O)oc2c1)C(=O)N1CCC1 (single isomer, unassigned) [Example 90, 7-((1-(azetidin-1-yl)-3-methoxy-1-oxopropan-2-yl)oxy)-4-(o-tolyl)-2H-chromen-2-one] | 10000 nM |
| O=c1cc(-c2ccc(F)cc2Cl)c2ccc(O)cc2o1 [Example 13, 4-(2-chloro-4-fluorophenyl)-7-hydroxy-2H-chromen-2-one] | 3000 nM |
| COc1ccccc1-c1cc(=O)oc2cc(O)ccc12 [Example 50, 7-hydroxy-4-(2-methoxyphenyl)-2H-chromen-2-one] | 10000 nM |
| CCCOc1ccc2c(-c3cnc(Cl)cc3C)cc(=O)oc2c1 [Example 55, 4-(6-chloro-4-methylpyridin-3-yl)-7-propoxy-2H-chromen-2-one] | 5000 nM |
| COCC(Oc1ccc2c(-c3ccccc3Cl)cc(=O)oc2c1)C(=O)O (stereo not drawn) [Example 84, 2-((4-(2-chlorophenyl)-2-oxo-2H-chromen-7-yl)oxy)-3-methoxypropanoic acid] | 2000 nM |
| Cc1ccccc1-c1cc(=O)oc2cc(OCCc3ccccc3)ccc12 [Example 07, 7-phenethoxy-4-(o-tolyl)-2H-chromen-2-one] | 4000 nM |
| CCCOc1ccc2c(-c3ccccc3)cc(=O)oc2c1 [Example 113, 4-phenyl-7-propoxy-2H-chromen-2-one] | 4000 nM |
| Cc1cccc(C)c1-c1cc(=O)oc2cc(O[C@H](C)C(=O)N3CCS(=O)(=O)CC3)ccc12 [Example 112, (R)-4-(2,6-dimethylphenyl)-7-((1-(1,1-dioxidothiomorpholino)-1-oxopropan-2-yl)oxy)-2H-chromen-2-one] | 65000 nM |
| COCC(Oc1ccc2c(-c3ccc(F)cc3Cl)cc(=O)oc2c1)C(=O)O (stereo not drawn) [Example 73, 2-((4-(2-chloro-4-fluorophenyl)-2-oxo-2H-chromen-7-yl)oxy)-3-methoxypropanoic acid] | 3000 nM |
| CCCOc1ccc2c(-c3ccc(O)cc3C)cc(=O)oc2c1 [Example 34, 4-(4-hydroxy-2-methylphenyl)-7-propoxy-2H-chromen-2-one] | 4000 nM |
| CC(=O)N1CC[C@@H](Oc2ccc3c(-c4ccccc4C)cc(=O)oc3c2)C1 [Example 62, (R)-7-((1-acetylpyrrolidin-3-yl)oxy)-4-(o-tolyl)-2H-chromen-2-one] | 19000 nM |
| COC[C@H](Oc1ccc2c(-c3ccccc3C)cc(=O)oc2c1)C(=O)O [Example 104, (S)-3-methoxy-2-((2-oxo-4-(o-tolyl)-2H-chromen-7-yl)oxy)propanoic acid] | 2000 nM |
| 2-((4-(2-chloro-4-fluorophenyl)-2-oxo-2H-chromen-7-yl)oxy)-3-methoxypropanamide [Example 77] | 2000 nM |
| Cc1ccccc1-c1cc(=O)oc2cc(O)cc(C)c12 [Example 37, 7-hydroxy-5-methyl-4-(o-tolyl)-2H-chromen-2-one] | 2000 nM |
| CC(=O)N1CCC(Oc2ccc3c(-c4ccc(F)cc4Cl)cc(=O)oc3c2)CC1 [Example 56, 7-((1-acetylpiperidin-4-yl)oxy)-4-(2-chloro-4-fluorophenyl)-2H-chromen-2-one] | 8000 nM |
| COC[C@H](Oc1ccc2c(-c3ccccc3C)cc(=O)oc2c1)C(N)=O [Example 67, (S)-3-methoxy-2-((2-oxo-4-(o-tolyl)-2H-chromen-7-yl)oxy)propenamide] | 16000 nM |
| COCC(Oc1ccc2c(-c3ccc(F)cc3Cl)cc(=O)oc2c1)C(N)=O (single isomer, unassigned) [Example 74, 2-((4-(2-chloro-4-fluorophenyl)-2-oxo-2H-chromen-7-yl)oxy)-3-methoxypropanamide] | 13000 nM |

These reach a lower IC50. Values come first.

| IC50 | Compound |
| --- | --- |
| 1000 nM | Cc1ccccc1-c1cc(=O)oc2cc(OCC3CCOCC3)ccc12 [Example 29, 7-((tetrahydro-2H-pyran-4-yl)methoxy)-4-(o-tolyl)-2H-chromen-2-one] |
| 1000 nM | Cc1ccccc1-c1cc(=O)oc2cc(OC3CCCOC3)ccc12 (single isomer, unassigned) [Example 49, 7-((tetrahydro-2H-pyran-3-yl)oxy)-4-(o-tolyl)-2H-chromen-2-one] |
| 900 nM | COCCOc1ccc2c(-c3ccccc3C)cc(=O)oc2c1 [Example 09, 7-(2-methoxyethoxy)-4-(o-tolyl)-2H-chromen-2-one] |
| 700 nM | COC[C@@H](Oc1ccc2c(-c3ccccc3C)cc(=O)oc2c1)C(N)=O [Example 68, (R)-3-methoxy-2-((2-oxo-4-(o-tolyl)-2H-chromen-7-yl)oxy)propenamide] |
| 600 nM | COCC(C)Oc1cc(C)c2c(-c3ccccc3C)cc(=O)oc2c1 (single isomer, unassigned) [Example 59, 7-((1-methoxypropan-2-yl)oxy)-5-methyl-4-(o-tolyl)-2H-chromen-2-one] |
| 500 nM | Cc1ccccc1-c1cc(=O)oc2cc(OC(CO)C(=O)N(C)C)ccc12 (single isomer, unassigned) [Example 78, 3-hydroxy-N,N-dimethyl-2-[4-(o-tolyl)-2-oxo-2H-chromen-7-yl]oxy-propanamide] |
| 400 nM | Cc1ccccc1-c1cc(=O)oc2cc(OC(C)C)cc(C)c12 [Example 58, 7-isopropoxy-5-methyl-4-(o-tolyl)-2H-chromen-2-one] |
| 200 nM | COCC(Oc1ccc2c(-c3ccc(F)cc3Cl)cc(=O)oc2c1)C(=O)OC (stereo not drawn) [Example 14, methyl 2-((4-(2-chloro-4-fluorophenyl)-2-oxo-2H-chromen-7-yl)oxy)-3-methoxypropanoate] |
| 200 nM | Cc1ccccc1-c1cc(=O)oc2cc(O[C@H](C)C(=O)N3CCS(=O)(=O)CC3)ccc12 [Example 111, (R)-7-((1-(1,1-dioxidothiomorpholino)-1-oxopropan-2-yl)oxy)-4-(o-tolyl)-2H-chromen-2-one] |
| 200 nM | COCC(Oc1ccc2c(-c3ccccc3C)cc(=O)oc2c1)C(=O)NCC(F)(F)F (single isomer, unassigned) [Example 83, 3-methoxy-2-((2-oxo-4-(o-tolyl)-2H-chromen-7-yl)oxy)-N-(2,2,2-trifluoroethyl)propanamide] |
| 100 nM | COC[C@@H](Oc1ccc2c(-c3ccccc3C)cc(=O)oc2c1)C(=O)N(C)C [Example 71, (R)-3-methoxy-N,N-dimethyl-2-((2-oxo-4-(o-tolyl)-2H-chromen-7-yl)oxy)propenamide] |
| 90 nM | CCCOc1ccc2c(-c3ccccc3C)cc(=O)oc2c1 [Example 02, 7-propoxy-4-(o-tolyl)-2H-chromen-2-one] |
| 50 nM | Cc1ccccc1-c1cc(=O)oc2cc(OC(C)C#N)ccc12 (single isomer, unassigned) [Example 42, 2-((2-oxo-4-(o-tolyl)-2H-chromen-7-yl)oxy)propanenitrile] |
| 30 nM | Cc1ccccc1-c1cc(=O)oc2cc(OC(COC(F)(F)F)C(=O)O)ccc12 (stereo not drawn) [Example 106, 2-((2-oxo-4-(o-tolyl)-2H-chromen-7-yl)oxy)-3-(trifluoromethoxy)propanoic acid] |
